These results are taken from US4996227A, “3-(heteroarylalkyene)- and 3-(arylalkylene)-2,4(3H,5H)-heterocyclic diones as cancer chemotherapy drugs” (priority 1989, dated 1991).

Holding throughout (type): cell-based
Assay [1] deals with KS62 strain stem-cell human leukemia cells. The experiment in a line: Inhibition of human leukemia cell growth in vitro, as done in Example 3. Particulars: for inhibition at 1 µg/mL / inhibition at 5 µg/mL / inhibition at 10 µg/mL: Homo sapiens. The protocol: A conventionally available cell line (K562) derived from human chronic granulocytic leukemia was employed in an in vitro procedure. The leukemia cell line was cultured in a suspension of RPMI 1640 plus 10% fetal calf serum. All initial cell concentrations for the cultures were 0.65 times 10^5 cells/ml. Four separate suspension cultures were employed with the first suspension culture having no additions. The second suspension culture included 100 microliters of the solvent DMSO per 10 ml of culture (control). The third culture contained 1 ug/ml of 3[[5-methyl-2 thienyl]methylene]-2, 4 (3H, 5H) furandione and the fourth culture contained 1 ug/ml of 3[[3-methyl-2-thienyl]methylene]-2, 4 (3H, 5H) furandione. The cell concentration of each of the four cultures was determined. After three days and again after five days.
In this example, aliquots of 1.0, 5.0 and 10.0 mcg/ml of each of the family compounds was prepared and assayed against KS62 strain stem-cell human leukemia cells in an in vitro procedure as done in Example 3 above.

A further assay has as its system human tumor H5330 THYMUS. The experiment in a line: Human Tumor Stem Cell Assay, colony growth after one hour exposure. As to conditions: 1 h. The text has this:
(§1) The in vitro Human Tumor Stem Cell Assay procedure described as follows has several advantages for testing the effectiveness of chemotherapy drugs such as the 3-(heteroarylalkylene)-2,4(3H,5H)-furandiones. The first advantage is that fresh tumor cells from a variety of tumor types were used rather than a small number of cell lines which have undergone severe selection pressures as they are passed in vitro. The second advantage is that only the anchorage-independent tumor cells will form colonies in soft agar so that any non-malignant cells present in the sample will not form colonies. Perhaps the most important advantage, however, is the emphasis on cells which have the ability to form colonies. These cells, which are generally called stem cells, usually comprise only a small percentage of all tumor cells. They are thought to be the most important cells for growth and distant spread of a tumor. In particular, these cells have the potential to leave the primary tumor and form new tumors at distant sites (called metastases). It is the effectiveness against these very important stem cells that the Human Tumor Stem Cell Assay measures.
(§2) One of the 3-(heteroarylalkylene)-2,4(3H,5H)-furandione compounds, 3-[(5-methyl-2-thienyl) methylene]-2,4(3H,5H)-furandione was evaluated against a series of 10 human tumors in the in vitro Human Tumor Cell Assay, along with conventional and standard chemotherapy agents.
(§3) In the procedure, a single cell suspension was prepared from tumors excised from patients during therapeutic or diagnostic surgical procedures. The human tumor cells were exposed to known anticancer drugs or to [(5-methyl-2-thienyl)methylene]-2,4 (3H, 5H)-furandione at a low (0.2 mcg/ml) or a high (1.0 mcg/ml) concentration for one hour. […] The suspension was washed with tissue culture medium to remove the drug.
(§4) The suspension was then cultured in a double soft agar suspension. Control cells which had been treated identically, except for exposure to the drugs, were also cultured. After one to two weeks, both the tumor cells and the control cells formed colonies in the soft agar which were enumerated under a microscope. The number of colonies grown from the drug-treated cells was compared to the number of colonies grown from the control cells, and the percentage growth after exposure to the drug was calculated.
(§5) The results are illustrated in Table 1, wherein the various numbers indicate the percentage of growth. For example, a small number like 6 means that the number of colonies is only 6% of the number without addition of the compound. On the other hand, a large number like 120 means that the number of colonies is 20% greater with the compound than without.
(§6) Of the nine tumors for which the higher concentration (1.0 mcg/ml) of the furandione was used, five gave inhibition of colony growth corresponding to borderline sensitive (30-50% growth) and four gave inhibition corresponding to sensitivity (0-30% growth). Clinical drugs are normally tested at 10% of their peak plasma concentration. For the standard chemotherapy drugs shown in Table 1, the low concentration (LO) corresponds to this 10% level, and the high concentration (HI) is at 50% of the peak plasma concentration. Of the same nine tumors, only two would have been rated as sensitive or borderline sensitive to any of the other clinical drugs tested.

A further assay concerns human tumor H5318 OVARY. The description is as above. Particulars: HI: furandione 1.0 mcg/ml; standard drugs 50% of peak plasma concentration; 1 h.
Excerpt: as §1, §2, §3, §4, §5, §6

The subject of the next assay is human tumor H5331 OVARY. The assay is described as above. Particulars: HI: furandione 1.0 mcg/ml; standard drugs 50% of peak plasma concentration; 1 h.
Excerpt: as §1, §2, §3, §4, §5, §6

In assay [2] the test system is human tumor H5325 SARCOMA. The description is as above. As to conditions: 1 h.
Excerpt: as §1, §2, §3, §4, §5, §6

The mark [3] stands for this setting: HI: furandione 1.0 mcg/ml, standard drugs 50% of peak plasma concentration.
Setting [4] is: LO: furandione 0.2 mcg/ml, standard drugs 10% of peak plasma concentration.

For the molecule `CCOC(=O)c1ccc(C=C2C(=O)COC2=O)s1` [Compound 45, 3-[(5-ethoxycarbonyl-2-thienyl)-methylene]-2,4(3H,5H) -furandione], the inhibition at 1 µg/mL in assay [1] (1.0 mcg/ml) is 0%. The inhibition at 5 µg/mL in assay [1] (5.0 mcg/ml) was determined as 0%. 10 µg/mL produced 100% inhibition in assay [1] (10.0 mcg/ml).
Turning to `O=C1COC(=O)C1=Cc1ccc(I)s1` [Compound 48, 3-[(5-iodo-2-thienyl)-methylene]-2.4(3H,5H)-furandione], 1 µg/mL produced 0% inhibition in assay [1] (1.0 mcg/ml). Also, the inhibition at 5 µg/mL in assay [1] (5.0 mcg/ml) is 0%. This molecule also registered an inhibition at 10 µg/mL in assay [1] (10.0 mcg/ml) of 98%.
Molecule `O=C1COC(=O)C1=Cc1ccc(Br)s1` [Compound 49] gave an inhibition at 1 µg/mL in assay [1] (1.0 mcg/ml) of 0%. Testing at 5 µg/mL in assay [1] (5.0 mcg/ml) gave an inhibition of 0%. Testing at 10 µg/mL in assay [1] (10.0 mcg/ml) gave an inhibition of 98%.
`O=C1COC(=O)C1=Cc1ccc(C(=O)O)s1` [Compound 50, 3-[(5-carboxy-2-thienyl)-methylene]-2,4(3H,5H)-furandione] yielded an inhibition at 1 µg/mL in assay [1] (1.0 mcg/ml) of 0%. For the same molecule, the inhibition at 5 µg/mL in assay [1] (5.0 mcg/ml) is 0%. The same molecule gave an inhibition at 10 µg/mL in assay [1] (10.0 mcg/ml) of 0%.
`Cc1ccsc1C=C1C(=O)COC1=O` [Compound 51, 3-[(3-methyl-2-thienyl)methylene]-2.4(3H.5H)-furandione]: in assay [1] (1.0 mcg/ml), the inhibition at 1 µg/mL came to 37%. The molecule further displayed an inhibition at 5 µg/mL in assay [1] (5.0 mcg/ml) of 100%. For the same molecule, in assay [1] (10.0 mcg/ml), the inhibition at 10 µg/mL came to 100%.
Take `COc1ccc(C=C2C(=O)COC2=O)c(OC)c1` [Compound 52, 3-[(2,4-dimethoxy-1-phenyl)methylene]-2,4(3H,5H)-furandione]: in assay [1] (1.0 mcg/ml), the inhibition at 1 µg/mL was 8%. Also, the inhibition at 5 µg/mL in assay [1] (5.0 mcg/ml) was determined as 38%. This molecule also showed an inhibition at 10 µg/mL in assay [1] (10.0 mcg/ml) of 95%.
`Cc1ccc(C=CC=C2C(=O)COC2=O)s1` [Compound 53, 3-[(5-methyl-2-thienyl)propylenediene)-2,4(3H,5H)-furandione] yielded an inhibition at 1 µg/mL in assay [1] (1.0 mcg/ml) of 0%. For the same molecule, 5 µg/mL produced 71% inhibition in assay [1] (5.0 mcg/ml). In addition, at 10 µg/mL the inhibition in assay [1] (10.0 mcg/ml) was 99%.
With `O=C1COC(=O)C1=CC=Cc1ccc(Br)s1` [Compound 54], in assay [1] (1.0 mcg/ml), testing at 1 µg/mL gave an inhibition of 27%. Also, in assay [1] (5.0 mcg/ml), testing at 5 µg/mL gave an inhibition of 99%. The same molecule had an inhibition at 10 µg/mL in assay [1] (10.0 mcg/ml) of 100%.
With `O=C1COC(=O)C1=Cc1ccc(Cl)c(Cl)c1` [Compound 55, 3-[(3,4-dichloro-1-phenyl)methylene]-2,4(3H,5H) -furandione], the “% Inhibition” value in assay [1] (1.0 mcg/ml), in assay [1] (5.0 mcg/ml) and in assay [1] (10.0 mcg/ml) was 0% in each case.
As for `O=C1COC(=O)C1=Cc1ccc(N2CCCCC2)s1` [Compound 56], the “% Inhibition” value in assay [1] (1.0 mcg/ml), in assay [1] (5.0 mcg/ml) and in assay [1] (10.0 mcg/ml) was 0% in each case.
Take `CN(C)c1ccc(C=C2C(=O)COC2=O)cc1` [Compound 57]: in assay [1] (1.0 mcg/ml), at 1 µg/mL the inhibition was 17%. At 5 µg/mL the inhibition in assay [1] (5.0 mcg/ml) was 94%. This molecule also returned an inhibition at 10 µg/mL in assay [1] (10.0 mcg/ml) of 96%.
In turn, `Cc1ccc(C=C2C(=O)OC(C)(C)C2=O)s1` [Compound 58] came in with an inhibition at 1 µg/mL in assay [1] (1.0 mcg/ml) of 51%. Further, testing at 5 µg/mL in assay [1] (5.0 mcg/ml) gave an inhibition of 97%. In assay [1] (10.0 mcg/ml), this molecule returned an inhibition at 10 µg/mL of 100%.
On the same counts, the results for `CC1(C)OC(=O)C(=Cc2ccc(I)s2)C1=O` [Compound 59, 3-[(5-iodo-2-thienyl)methylene]-5.5-dimethyl-2,4 (3H)furandione] are 1%, 37% and 94%.
In turn, `CC1(C)OC(=O)C(=Cc2ccc(Br)s2)C1=O` [Compound 60] gave an inhibition at 1 µg/mL in assay [1] (1.0 mcg/ml) of 0%. Besides, the inhibition at 5 µg/mL in assay [1] (5.0 mcg/ml) turned out to be 96%. In assay [1] (10.0 mcg/ml), this molecule yielded an inhibition at 10 µg/mL of 100%.
On the same counts, the results for `CCOC(=O)c1ccc(C=C2C(=O)OC(C)(C)C2=O)s1` [Compound 61, 3-(5-carboxyethyl-2-thienyl)methylene1-5.5-dimethyl 11-2,4(3H)furandione] are 0%, 18% and 42%.
On the same counts, the results for `Cc1ccsc1C=C1C(=O)OC(C)(C)C1=O` [Compound 62, 3[(3-methyl-2-thienyl)methylene]-5,5dimethyl-2,4(3H,5H) furandione] are 6%, 99% and 100%.
As to `Cc1ccc(C=C2C(=O)CNC2=O)s1` [Compound 63, 3-[(5-methyl-2-thienyl)methylene] -2,4(3H.5H) pyrrolidinedione], testing at 1 µg/mL in assay [1] (1.0 mcg/ml) gave an inhibition of 0%. Testing at 5 µg/mL in assay [1] (5.0 mcg/ml) gave an inhibition of 0%. The molecule also had an inhibition at 10 µg/mL in assay [1] (10.0 mcg/ml) of 0%.
With `O=C1CNC(=O)C1=Cc1ccc(Br)s1` [Compound 64], the inhibition at 1 µg/mL in assay [1] (1.0 mcg/ml) worked out at 0%. In assay [1] (5.0 mcg/ml), this molecule registered an inhibition at 5 µg/mL of 0%. In assay [1] (10.0 mcg/ml), this molecule gave an inhibition at 10 µg/mL of 0%.
`CCOC(=O)c1ccc(C=C2C(=O)CNC2=O)s1` [Compound 65] had an inhibition at 1 µg/mL in assay [1] (1.0 mcg/ml) of 7%. Also, in assay [1] (5.0 mcg/ml), testing at 5 µg/mL gave an inhibition of 32%. This molecule also gave an inhibition at 10 µg/mL in assay [1] (10.0 mcg/ml) of 75%.
For `Cc1ccsc1C=C1C(=O)CNC1=O` [Compound 66, 3-(3-methyl-2-thienyl)methylene1-2,4(3H,5H) pyrrolidinedione], in that order: 0%, 15% and 54%.
For `Cc1ccc(C=CC=C2C(=O)CNC2=O)s1` [Compound 67, 3-[(5-methyl-2-thienyl)propylenediene]-2,4(3H,5H) pyrrolidinedione], in that order: 0%, 0% and 94%.
In the case of `O=C1CNC(=O)C1=Cc1ccc(N2CCCCC2)s1` [Compound 68, 3-(5-N-piperdyl-2-thienyl)methylene1-2.4(3H.5H) pyrrolidinedione], the “% Inhibition” value in assay [1] (1.0 mcg/ml), in assay [1] (5.0 mcg/ml) and in assay [1] (10.0 mcg/ml) was 0% each time.
Regarding `Cc1ccc(C=C2C(=O)CSC2=O)s1` [Compound 69], in assay [1] (1.0 mcg/ml), testing at 1 µg/mL gave an inhibition of 13%. This molecule displayed an inhibition at 5 µg/mL in assay [1] (5.0 mcg/ml) of 41%. The same molecule registered an inhibition at 10 µg/mL in assay [1] (10.0 mcg/ml) of 100%.
On the same counts, the results for `O=C1CSC(=O)C1=Cc1ccc(Br)s1` [Compound 70, 3-[(5-bromo-2-thienyl)methylene]-2.4(3H,5H)-1-thiophene dione] are 22%, 30% and 54%.
Turning to `CN(C)/N=N/c1[nH]cnc1C(N)=O` [DTIC, DACARBAZINE], the “percentage of growth (colonies vs control)” value (“percentage of growth” below) with human tumor H5330 THYMUS (setting [3]) is 59%; with human tumor H5330 THYMUS (setting [4]), 91%.
Regarding `CN(C)c1nc(N(C)C)nc(N(C)C)n1` [HXM, HEXAMETHYLMELAMINE], the “percentage of growth” value is given as 102% with human tumor H5318 OVARY and 84% in the assay with human tumor H5331 OVARY.
On to `COc1cc([C@@H]2c3cc4c(cc3[C@@H](O[C@@H]3O[C@@H]5CO[C@@H](C)O[C@H]5[C@H](O)[C@H]3O)[C@H]3COC(=O)[C@H]23)OCO4)cc(OC)c1O` [VP16], for which the “percentage of growth” value in the assay with human tumor H5330 THYMUS (setting [3]) was determined as 77%.
In the case of ACTINOMYCEN D, the figures for the “percentage of growth” value in assay [2] (setting [3]) and in assay [2] (setting [4]) were 22% and 6%, respectively.
